Key:
[1] = test system: Human T-lymphoblastic leukemia cell line CEM; test: MTT in vitro cytotoxicity assay, CEM; format: cell-based; conditions: 72 hours incubation
Excerpt: (§1) One of the parameters used as the basis for colorimetric assays is the metabolic activity of viable cells. For example, a microtiter assay which uses the tetrazolium salt 3-[4,5-Dimethylthiazol-2-yl]-2,5-diphenyltetrazolium bromide; Thiazolyl blue (hereinafter MTT) is now widely used to quantitate cell proliferation and cytotoxicity, for instance, in drug screening programs and in chemosensitivity testing. Because tetrazolium salts are cleaved only by metabolically active cells, these assays detect viable cells exclusively. In the case of the MTT-assay, yellow soluble tetrazolium salt is reduced to colored water-insoluble formazan salt. After it is solubilized, the formazan formed can easily and rapidly be quantified in a conventional ELISA plate reader at 570 nm (maximum absorbance). The quantity of reduced formazan corresponds to number of vital cells in the culture. […]
(§2) The cell suspensions that were prepared and diluted according to the particular cell type and the expected target cell density (2,500-30,000 cells per well based on cell growth characteristics) were added by pipet (80 μl) into 96 well microtiter plates. […] Usually, test compound were evaluated at six 4-fold dilutions. […] The optical density (OD) was measured at 540 nm with the Labsystem iEMS Reader MF (UK). […]

[2] = test system: promyelocytic leukemia HL-60; test: MTT in vitro cytotoxicity assay, HL-60; format: cell-based, human
Excerpt: as §1, §2

B16 melanoma [3] = test: MTT in vitro cytotoxicity assay, B16; format: cell-based, mouse
Excerpt: as §1, §2

B16F10 melanoma = test: MTT in vitro cytotoxicity assay, B16F10; format: cell-based, mouse
Excerpt: as §1, §2

[4] = test system: human breast carcinoma cell line MCF-7; test: MTT in vitro cytotoxicity assay, MCF7; format: cell-based
Excerpt: as §1, §2

[5] = test system: cervical carcinoma cells HELA; test: MTT in vitro cytotoxicity assay, HELA; format: cell-based; conditions: 72 hours incubation
Excerpt: as §1, §2

[6] = test system: mouse immortalized bone marrow macrophages B10A.4; test: MTT in vitro cytotoxicity assay, B10#4; format: cell-based
Excerpt: as §1, §2

[7] = test system: mouse immortalized bone marrow macrophages B2.4; test: MTT in vitro cytotoxicity assay, B2#4; format: cell-based; conditions: 72 hours incubation
Excerpt: as §1, §2

U937 = test: MTT in vitro cytotoxicity assay, U937; format: cell-based
Excerpt: (§3) One of the parameters used as the basis for colorimetric assays is the metabolic activity of viable cells. For example, a microtiter assay which uses the tetrazolium salt 3-[4,5-Dimethylthiazol-2-yl]-2,5-diphenyltetrazolium bromide; Thiazolyl blue (hereinafter MTT) is now widely used to quantitate cell proliferation and cytotoxicity, for instance, in drug screening programs and in chemosensitivity testing. Because tetrazolium salts are cleaved only by metabolically active cells, these assays detect viable cells exclusively. In the case of the MTT-assay, yellow soluble tetrazolium salt is reduced to colored water-insoluble formazan salt. After it is solubilized, the formazan formed can easily and rapidly be quantified in a conventional ELISA plate reader at 570 nm (maximum absorbance). The quantity of reduced formazan corresponds to number of vital cells in the culture.
as §2, with “plates. Inoculates were allowed a preincubation period of 24 hours at 37° C. and 5% CO2 for stabilization.” for “plates.”

L1210 leukemia = test: MTT in vitro cytotoxicity assay, L1210; format: cell-based, mouse
Excerpt: as §1, §2

P388D1 leukemia [8] = test: MTT in vitro cytotoxicity assay, P388D1; format: cell-based, mouse
Excerpt: as §1, §2

mouse fibroblasts NIH3T3 = test: MTT in vitro cytotoxicity assay, NIH3T3; format: cell-based
Excerpt: as §1, §2

normal human lymphocytes = test: MTT in vitro cytotoxicity assay, lymphocytes; format: cell-based; conditions: 72 hours incubation
Excerpt: as §3
as §2, with “plates. Inoculates were allowed a preincubation period of 24 hours at 37° C. and 5% CO2 for stabilization.” for “plates.”

tumor cell lines = test: MTT in vitro cytotoxicity, panel of tumor cell lines; format: cell-based; conditions: summary of Table 1
Excerpt: as §1, §2

P388D1 leukemia [9] = test: In vivo antitumor activity, intraperitoneally transplanted P388D1 leukemia; conditions: DBA-2 mice, 1 mg 4x daily for 7 days
B16 melanoma [10] = test: In vivo antitumor activity, subcutaneously inoculated B16 melanoma; conditions: C57BL-10 mice, 1 mg subcutaneously 4x daily for 7 days
[11] = mouse
Experimental: in vivo anti-cancer activity assays: water insoluble compounds: 50% DMSO, 10 mM HCl in saline.
Cells were trypsinized, washed in PBS and suspended in PBS with 0.5% bovine serum albumin. 0.5 miilion cells from this suspension was applied subcutaneously to C57BL-10 mice. […] The compounds (1 mg) were applied subcutaneously 4× daily, for 7 days.
Cells were scraped, washed in PBS and suspended in PBS with 0.5% bovine serum albumin. 0.5 million cells from this suspension was applied intraperitoneally to DBA-2 mice. […] The compounds (1 mg) were applied subcutaneously 4× daily, for 7 days.

CEM cells [12] = test: Apoptosis by phase contrast and electron microscopy; format: cell-based, human; conditions: 50 μm, 8 hours (FIG. 3)
CEM cells [13] = test: Apoptosis and cell cycle analysis by FACS (DNA content); format: cell-based, human; conditions: 50 μm (FIG. 4), method 70 μM, 3-24 hours
Experimental: Cells (1×10^6/ml) were cultured in 6-well plates with or without 70 μM concentration of test compound at 37° C. and 5% CO2 for 3-24 hours. Following incubation, cells were pelleted, washed in Hank's buffered salt solution and fixed in 96% ethanol overnight at −20° C. Low molecular weight apoptotic DNA was extracted in citrate buffer. RNA was cleaved using RNAse (50 mg/ml).

With `CC(C)=CCNc1ncnc2nc[nH]c12` [IP, isopentenyladenine] the IC50 [1] was 169 µM, the IC50 ([2]; 72 hours incubation) was 157 µM and the IC50 (B16 melanoma [3]; 72 hours incubation) was 267 µM. The IC50 (B16F10 melanoma; 72 hours incubation) was 267 µM, the IC50 ([4]; 72 hours incubation) was 267 µM and the IC50 [5] was 267 µM. For the same compound, the IC50 ([6]; 72 hours incubation) was 267 µM, the IC50 [7] was 267 µM and the IC50 (U937; 72 hours incubation) was 267 µM. For the same compound, the IC50 (L1210 leukemia; 72 hours incubation) was 267 µM, the IC50 (P388D1 leukemia [8]; 72 hours incubation) was 267 µM and the IC50 (mouse fibroblasts NIH3T3; 72 hours incubation) was 267 µM. The IC50 (normal human lymphocytes) was 267 µM, the “toxicity to tumor cells (in words)” value (tumor cell lines) was “did not show significant toxicity” and the “in vivo activity, P388D1 leukemia model (survival)” value (P388D1 leukemia [9]) was “no activity”. The “in vivo activity, B16 melanoma model (medium survival time)” value (B16 melanoma [10]) was “no activity” and the “toxicity in vivo / tissue necrosis at the site of application” value [11] was “no activity and toxicity”.
`Cn1cnc2c(NCc3ccccc3)nc(NCCO)nc21` [OC, 2-(2-hydroxyethylamino)-6-benzylamino-9-methylpurine] gave an IC50 ([1]; Homo sapiens) of 20.7 µM, an IC50 ([2]; Homo sapiens, HL-60, 72 hours incubation) of 28.9 µM and an IC50 (B16 melanoma [3]; Mus musculus, B16, 72 hours incubation) of 50.4 µM. It also gave an IC50 (B16F10 melanoma; Mus musculus, B16-F10, 72 hours incubation) of 20.6 µM, an IC50 ([4]; Homo sapiens, MCF7, 72 hours incubation) of 30.5 µM and an IC50 ([5]; Homo sapiens, HeLa) of 100 µM. The IC50 ([6]; Mus musculus, B104, 72 hours incubation) was 20.3 µM, the IC50 ([7]; Mus musculus, Bone marrow macrophage) was 8.1 µM and the IC50 (U937; Homo sapiens, U-937, 72 hours incubation) was 63.8 µM. It also gave an IC50 (L1210 leukemia; Mus musculus, L1210, 72 hours incubation) of 23.5 µM, an IC50 (P388D1 leukemia [8]; Mus musculus, P388D1, 72 hours incubation) of 14.5 µM and an IC50 (mouse fibroblasts NIH3T3; Mus musculus, NIH3T3, 72 hours incubation) of 267 µM. The IC50 (normal human lymphocytes; Homo sapiens, Lymphocyte) was 267 µM, the “toxicity to tumor cells (in words)” value (tumor cell lines) was “moderately effective” and the “in vivo activity, P388D1 leukemia model (survival)” value (P388D1 leukemia [9]) was “significant in vivo activity”. The “in vivo activity, B16 melanoma model (medium survival time)” value (B16 melanoma [10]) was “significant in vivo activity” and the “apoptosis by phase contrast / electron microscopy” value (CEM cells [12]) was “apoptosis had occurred”.
For `CCC(CO)Nc1nc(NCc2ccccc2)c2ncn(C(C)C)c2n1` (stereo not drawn) [ROSC, 2-[(1-ethyl-2-hydroxyethyl)amino]-6-benzylamino-9-isopropylpurine], the “apoptosis by phase contrast / electron microscopy” value (CEM cells [12]) was “apoptosis had occurred” and the “apoptosis by flow cytometric analysis of DNA content” value (CEM cells [13]) was “Extensive apoptosis”.

Reference: patent US6703395B2, “Cyclin dependent kinase inhibitor” (priority 1998, dated 2004)
